# Assay results published in article PMC4129108, “The natural triterpene 3β,6β,16β-trihydroxy-lup-20(29)-ene obtained from the flowers of Combretum leprosum induces apoptosis in MCF-7 breast cancer cells” (BMC Complementary and Alternative Medicine, 2014).
# Entries after “also recorded” stand apart in the source; their conditions may differ.
# Key:
# T24 (bladder cancer) = experiment: XTT cell viability assay, T24; format: cell-based, human; conditions: for IC50: Homo sapiens, XTT
# Experimental: The human cell lines MCF-7 (breast adenocarcinoma), HepG2 (hepatoma), T24 (bladder cancer), CACO-2 (colorectal adenocarcinoma) and MRC5 (lung normal fibroblast) were obtained from the Rio de Janeiro Cell Bank (Rio de Janeiro, RJ, Brazil). The HCT116 cell (colorectal carcinoma), and HT29 cell (colorectal adenocarcinoma) were kindly provided by Dr. Annette K. Larsen (Institut National de la Santé et de la Recherche Médicale - INSERM, Paris, França). All cell lines except MCF-7 were grown in DMEM supplemented with 10% or 20% (for CACO-2) FBS, 100 units.mL^-1 penicillin and 100 μg.mL^-1 streptomycin at 37°C in a humidified atmosphere of 5% CO2. MCF-7 cells were maintained in RPMI-1640 supplemented with 20% FBS at the same conditions described above.
# The cytotoxic potential of the TTHL was evaluated by the XTT assay in human tumor cell lines as well as in MRC5 normal fibroblasts. Cells (1 × 10^4 cells) were seeded on 96-well plates in growth medium and incubated overnight. Afterwards, TTHL (0.5, 1.0, 2.5, 5.0, and 10 μg/mL) was added to each well and incubated for 24, 48, 72, and 120 h. Mitoxantrone, a cytostatic anthracenedione that intercalates in DNA and increases the incidence of double-strand breaks by stabilizing the cleavable complex of topoisomerase II and DNA, was used as positive control. At the end of each treatment, cell viability was assessed according to the manufacturer’s instructions. Briefly, after discarding the medium, 1 mL of XTT labeling mixture was added to the cells and incubated for 2 h at 37°C. Absorbance was measured with a SpectraMax reader (Bio-Rad, USA) at a test wavelength of 492 nm (A492) and a reference wavelength of 690 nm (A690). The final result corresponds to A492-A690. The absorbance of negative control cells was set as 100% viability, and the values for treated cells were calculated as a percentage of the control.
# The IC20, IC50, and IC80 values and their 95% confidence intervals (CI 95%) were obtained by nonlinear regression using GraphPad Prism v5 program (Intuitive Software for Science, San Diego, CA, USA). Selective index (SI) was calculated by IC50 in MRC5 cells/IC50 in tumoral cells. All experiments were independently repeated at least three times, with triplicate samples for each treatment. Results are expressed as means ± standard deviation (SD). Data were analyzed by one-way analysis of variance (ANOVA), and means were compared using Tukey test, with P ≤ 0.05 considered as statistically significant.
# MCF-7 cells = experiment: Alkaline comet assay; format: cell-based, human; conditions: MCF-7, 24 h
# Experimental: Cells (2 × 10^5 cells/mL) were seeded on 6-well tissue culture plates, and grown for 1 day up to 70–80% confluence before treatment with the test substance. The TTHL was added to medium with FBS to obtain the different concentrations, and cells were treated at 37°C for 24 h in humidified atmosphere containing 5% CO2.
# The alkaline comet assay was performed as previously described. Briefly, 10 μL of cell suspension (1 × 10^4 cells) treated with TTHL were mixed with 90 μL LMP agarose, spread on a normal agarose precoated microscope slide, and placed at 4°C for 5 min to allow for solidification. Cells were lysed in high concentration of salt and detergent (2.5 M NaCl, 100 mM Na2EDTA, 10 mM Tris with 1% Triton X-100 and 10% DMSO freshly added) for 2 h. Slides were removed from lysing solution and washed three times with PBS. Subsequently, cells were exposed to alkali conditions (300 mM NaOH/1 mM Na2EDTA, pH >13, 30 min, 4°C) to allow DNA unwinding and expression of alkali-labile sites. Electrophoresis was conducted for 25 min at 25 V and 300 mA ([…]). After electrophoresis, the slides were neutralized and silver stained. One hundred cells were scored visually according to the tail length and the amount of DNA present in the tail. Each comet was given an arbitrary value of 0–4 (0, undamaged; 4, maximally damaged), as described by Collins et al.. Damage score was thus assigned to each sample and can range from 0 (completely undamaged: 100 cells × 0) to 400 (with maximum damage: 100 cells × 4). International guidelines and recommendations for the comet assay consider that visual scoring of comets is a well-validated evaluation method, as it is highly correlated with computer-based image analysis.
# [1] = tested on: S. cerevisiae haploid strain XV185-14c; experiment: Point and frameshift mutations and survival in XV185-14c haploid yeast; format: cell-based, Saccharomyces cerevisiae; conditions: for HIS1/10^7 survivors (locus-specific revertants) / HOM3/10^8 survivors (locus-specific revertants, frameshift) / LYS1/10^8 survivors (locus non-specific revertants) / Survival (%): XV185-14c, STAT cells treated in PBS; for Survival (%): 1 h 30°C
# Experimental: Media, solutions and buffers were prepared according to Burke et al.. YPD medium (0.5% yeast extract, 2% peptone, 2% glucose) was used for routine growth. Synthetic medium SC (0.67% yeast nitrogen base, 0.1% ammonium sulfate, 2% glucose) supplemented with the appropriate amino acids and bases ([…]) was used for the detection of mutations.
# Stationary phase (STAT) cultures were obtained by inoculation of a single colony into liquid YPD. We chose to work in the stationary phase of growth because this resembles most cells of multicellular organisms in important aspects: (i) most energy comes from mitochondrial respiration; (ii) the cells have left the active cell cycle and have entered the Go phase; and (iii) damage accumulates over time.
# Cell cultures were grown as described above, exposed to TTHL in concentrations ranging from 10 to 500 μg/mL, and then incubated in PBS for 1 h at 30°C. Two alleles, his1-798 and lys1-1, were used to detect point mutagenesis. The suppressible ochre nonsense mutant allele lys1-1 can be reverted either by locus-specific sequence alteration (true reversion) or by a forward mutation in a suppressor gene. […] Survival was determined on SC medium (3–5 days, 30°C) and mutation induction (HIS, LYS or HOM revertants) on media lacking the appropriate amino acid (7–10 days, 30°C). Induction of reversion of point mutation to his1-798, ochre allele lys1-1, and frameshift mutation values were scored per number of surviving cells.
compound,measurement,setting,value
"C=C(C)[C@@H]1CC[C@@]2(C)[C@H]1[C@H]1CC[C@@H]3[C@@]4(C)CC[C@H](O)C(C)(C)[C@@H]4[C@H](O)C[C@@]3(C)[C@]1(C)C[C@@H]2O [TTHL, 3β,6β,16β-trihydroxy-lup-20(29)-ene]",IC50,"T24 (bladder cancer); T24, 24 h treatment",5.55 ± 0.64 µg/mL
same,IC50,"T24 (bladder cancer); T24, 48 h treatment",5.2 ± 0.42 µg/mL
same,IC50,"T24 (bladder cancer); T24, 72 h treatment",1.09 ± 0.14 µg/mL
same,IC50,"T24 (bladder cancer); T24, 120 h treatment",0.39 ± 0.1 µg/mL
same,Selectivity index (SI),"T24 (bladder cancer); IC50 in MRC5 cells/IC50 in T24, 24 h",1.5 X
same,Selectivity index (SI),"T24 (bladder cancer); IC50 in MRC5 cells/IC50 in T24, 48 h",1.5 X
same,Selectivity index (SI),"T24 (bladder cancer); IC50 in MRC5 cells/IC50 in T24, 72 h",7 X
same,Selectivity index (SI),"T24 (bladder cancer); IC50 in MRC5 cells/IC50 in T24, 120 h",17 X
same,DNA damage (alkaline comet assay),MCF-7 cells; TTHL at IC20,does not generate DNA-strand breaks
same,DNA damage (alkaline comet assay),MCF-7 cells; TTHL at IC50,induces signifcant DNA damage
same,DNA damage (alkaline comet assay),MCF-7 cells; TTHL at IC80,induces signifcant DNA damage
same,mutagenicity in yeast strain XV185-14c (in words),"[1]; 10 to 500 μg/mL, his1-798, lys1-1, hom3-10 loci",induced mutagenicity; also recorded: only able to induce mutagenesis on the assessed loci at the highest concentration
same,HIS1/10^7 survivors (locus-specific revertants),[1]; 10 μg/mL,10.77 ± 4.40 /10^7 survivors
same,"HOM3/10^8 survivors (locus-specific revertants, frameshift)",[1]; 10 μg/mL,6.11 ± 1.58 /10^8 survivors
same,LYS1/10^8 survivors (locus non-specific revertants),[1]; 10 μg/mL,4.78 ± 0.63 /10^8 survivors
same,Survival (%),[1]; 10 μg/mL,84.90%
same,HIS1/10^7 survivors (locus-specific revertants),[1]; 50 μg/mL,13.33 ± 1.10 /10^7 survivors
same,"HOM3/10^8 survivors (locus-specific revertants, frameshift)",[1]; 50 μg/mL,8.80 ± 0.14 /10^8 survivors
same,LYS1/10^8 survivors (locus non-specific revertants),[1]; 50 μg/mL,5.68 ± 2.22 /10^8 survivors
same,Survival (%),[1]; 50 μg/mL,72.83%
same,HIS1/10^7 survivors (locus-specific revertants),[1]; 100 μg/mL,20.83 ± 1.80 /10^7 survivors
same,"HOM3/10^8 survivors (locus-specific revertants, frameshift)",[1]; 100 μg/mL,8.49 ± 2.12 /10^8 survivors
same,LYS1/10^8 survivors (locus non-specific revertants),[1]; 100 μg/mL,9.72 ± 0.55 /10^8 survivors
same,Survival (%),[1]; 100 μg/mL,65.00%
same,HIS1/10^7 survivors (locus-specific revertants),[1]; 500 μg/mL,30.10 ± 0.21 /10^7 survivors
same,"HOM3/10^8 survivors (locus-specific revertants, frameshift)",[1]; 500 μg/mL,11.15 ± 0.92 /10^8 survivors
same,LYS1/10^8 survivors (locus non-specific revertants),[1]; 500 μg/mL,14.40 ± 3.40 /10^8 survivors
same,Survival (%),[1]; 500 μg/mL,69.00%
